Source: patent US12048680B2, “Use of Gemfibrozil and derivative thereof for treatment and/or prevention of neurodegenerative disease” (Kunming Institute of Zoology Chinese Academy of Sciences, priority 2018, dated 2024)

How the values were obtained:
APP/PS1ΔE9 mice = assay: Open field experiment (anxiety symptoms); assay type: in vivo, mouse; conditions: 2 months of administration
Protocol: (§1) Gemfibrozil was administered to 8-month-old APP/PS1ΔE9 mice (male and female halves). Gemfibrozil was first dissolved in dimethyl sulfoxide (DMSO) at a concentration of 50 mg/mL, and then diluted to a final concentration of 50 μg/mL with mouse drinking water to obtain a drug solution. The mice in the administration group were allowed to freely drink the drug solution containing gemfibrozil, in which the final concentration of DMSO in the solution was 0.1%; and the mice in the control group were allowed to drink water containing 0.1% DMSO freely. All drinking devices contained with Gemfibrozil were wrapped in aluminum foil to prevent decomposition by exposure. During dosing, the drug solution was replaced every 2 days. Mice were measured daily for water consumption. After 2 months of dosing, all mice were subjected to behavioural experiments. Mice were placed in the laboratory to be behaviourally tested one hour prior to the start of daily behavioural studies, and all behavioural experiments were completed between 9 and 17 o'clock. All experiments involving animals were approved by Animal Ethics Committee of the Kunming Institute of Zoology, CAS. We evaluated the anxiety symptom behavior of APP/PS1ΔE9 mice 2 months after administration of Gemfibrozil using an open field experiment. […]

PSD-95 protein = assay: Immunohistochemical staining of mouse brain tissue for PSD-95; assay type: in vivo; conditions: hippocampus of APP/PS1ΔE9 mice treated for 2 months (A-B in FIG. 3)
hippocampal neurons = assay: Golgi staining, dendritic spine density in mouse brain neurons; assay type: in vivo; conditions: hippocampal neurons of APP/PS1ΔE9 mice treated for 2 months (C-D in FIG. 3)
Protocol: as §1, with “7.” for “We evaluated the anxiety symptom behavior of APP/PS1ΔE9 mice 2 months after administration of Gemfibrozil using an open field experiment.”

SMILES: Cc1ccc(C)c(OCCCC(C)(C)C(=O)O)c1 [Gemfibrozil, 2,2-dimethyl-5-(2,5-dimethylphenoxy) pentanoic acid]
- anxiety symptoms (APP/PS1ΔE9 mice; vs control group): significantly alleviated
- lingering time in the open field central region (APP/PS1ΔE9 mice; vs control group (A, C in FIG. 2)): significantly increased
- PSD-95 immunoreactivity (PSD-95 protein): significantly up-regulated
- dendritic spine density (hippocampal neurons): significantly up-regulated
